BindingDB's records for doi:10.1016/j.bmc.2009.08.051 (Kyoto Prefectural University, 2009)

What was measured:
[1] = target: DNA polymerase beta (Rattus norvegicus, UniProt P06766); test: DNA Polymerase Assay; settings: pH 7.5; 37 °C
Procedure: (§1) For the DNA polymerase reaction, the dehydroaltenusin derivative was dissolved in dimethyl sulfoxide (DMSO) at various concentrations and sonicated for 30 s. Four microlitres of each sonicated sample were mixed with 16 uL of enzyme (final 0.05 units) in reaction buffer, and kept at 0 deg C for 10 min. These inhibitor-enzyme mixtures were added to 16 uL of each enzyme standard reaction mixture containing DNA template-primer and nucleotide, and incubated at 37 deg C for 60 min. Activity without the inhibitor was considered 100%, and the remaining activity at each concentration of the inhibitor was determined relative to this value. One unit of pol activity was defined as the amount of enzyme that catalyzed the incorporation of 1 nmol of dNTP (i.e., dTTP) into synthetic DNA template-primer in 60 min at 37 deg C under the normal reaction conditions.

[2] = target: DNA polymerase (Bos taurus, UniProt A0AAA9TD94); test: DNA Polymerase Assay; settings: pH 7.5; 37 °C
Procedure: as §1

SMILES | IC50 [1] [µM] | IC50 [2] [µM]
CCCOc1cc(O)c2c(c1)C1=CC(=O)C(=O)CC1(C)OC2=O (stereo not given) [dehydroaltenusin derivative, 14] | 35 | 0.18
CCCCCCOc1cc(O)c2c(c1)C1=CC(=O)C(=O)CC1(C)OC2=O (stereo not given) [dehydroaltenusin derivative, 15] | 24 | 0.09
CCCCCCCCCCCCOc1cc(O)c2c(c1)C1=CC(=O)C(=O)CC1(C)OC2=O (stereo not given) [dehydroaltenusin derivative, 16] | 11 | 0.06
CC12CC(=O)C(=O)C=C1c1cccc(O)c1C(=O)O2 (stereo not given) [dehydroaltenusin derivative, 20] | 89 | 0.24
COc1cc(O)c2c(=O)oc3cc(OCc4ccccc4)c(OCc4ccccc4)cc3c2c1 [dehydroaltenusin derivative, 25] | > 200 | > 200
COc1cc(O)c2c(=O)oc3cc(O)c(O)cc3c2c1 [dehydroaltenusin derivative, 26] | > 200 | > 200
COc1cc(O)c2c(c1)C1=CC(=O)C=CC1(C)OC2=O (stereo not given) [dehydroaltenusin derivative, 31] | > 200 | > 200
CC12C=CC(=O)C=C1c1cccc(O)c1C(=O)O2 (stereo not given) [dehydroaltenusin derivative, 32] | > 200 | > 200
COc1cc(O)c2c(c1)C1=CC(=O)C(=O)CC1(C)OC2=O (stereo not given) [dehydroaltenusin] | 64 | 0.68
CC12CC(=O)C(=O)C=C1c1cc(O)cc(O)c1C(=O)O2 (stereo not given) [desmethyldehydroaltenusin, 2] | 126 | 0.89
